Laboratory results from patent publication US20190054103A1, “METHOD OF TREATMENT OF TP53 WILD-TYPE TUMORS WITH 2',2'-DIFLUORO-5-AZA-2'-DEOXYCYTIDINE OR PRODRUGS THEREOF” (priority 2016, published 2019).

Legend:
[1] = tested on: TP53 WT colon cancer cell line Ls174T; experiment: CellTiter-Glo growth inhibition, Ls174T; type: cell-based; settings: 72-hour exposure, FIG. 1
Method: (§1) Two examples of additional comparisons are provided below for colon cancer cell lines (TP53 WT colon cancer cell line Ls174T and TP53 WT colon cancer cell line LoVo).
(§2) In these assays, two 96 well plates of each cell line were seeded with 5,000 cells per well in a total volume of […] per well and left incubating overnight. The following day, the cells were exposed to different concentrations of NUC013. At the end of a 72-hour exposure period, the plates were removed for CellTiter-Glo® assay. Luminescence was recorded on a Synergy 4.0.

HeLa cells = experiment: Nucleotide concentrations in HeLa cell extracts by HPLC (RNR inhibition); type: cell-based; settings: 50 μM, 16 h incubation
Text: The more common approach is to synthesize a nucleoside diphosphate and then determine whether it inhibits RNR or p53R2. […] Nucleic Acids Research. […] The other approach is to expose cells in tissue culture to the drug and then attempt to determine whether deoxynucleotide synthesis is inhibited when compared to control cells. Measurement of deoxynucleotides may be done by radioimmunoassay or by HPLC. The disadvantage of a radioimmunoassay is that it can only measure a single deoxynucleotide triphosphate (dNTP) at a time and typically requires a tritiated nucleotide, but it is the preferred method for measuring dCTP [Piall E M, Aherne G W, Marks V. The quantitative determination of 2′-deoxycytidine-5′ triphosphate in cell extracts by radioimmunoassay. Anal Biochem. 1986; 154(1):276-281 incorporated herein by reference in its entirety]. On the other hand, HPLC can measure multiple nucleotides without requiring radiolabeling, but has been noted to quantitate poorly dC nucleotides, possibly as an artifact of an influx of dCTP from the medium [Bianchi V, Pontis E, Reichard P. Changes of deoxyribonucleoside triphosphate pools induced by hydroxyurea and their relation to DNA synthesis. J Biol Chem. 1986; 261(34): 16037-16042 incorporated herein by reference in its entirety]. This approach was used to determine RNR inhibition by NUC013.
Briefly, HeLa cells ([…]) were grown in the presence or absence of drug, in this case gemcitabine or NUC013. At the end of a 16 h incubation, the medium was aspirated, cells monolayers washed twice with PBS, and used for nucleotide extraction. The nucleotides were extracted from cell monolayers by the addition of ice-cold 80% acetonitrile (ACN) for 1 h. The extracts were centrifuged to remove cellular debris and loaded on a SAX column (100 mg, Supelco) pre-conditioned with methanol, water and ACN. Once the sample was completely effused, the cartridge was washed with 3 ml 80% ACN and 3 ml water and eluted with 1M KCl. The eluent was filtered through a 0.45 μm filter membrane (Roth) and analyzed by HPLC. Peak identification of the different nucleoside mono-, di-, and triphosphates, was made from their characteristic UV absorption spectra and retention times compared with those of a mixture of standards run immediately before cell extracts. The area of individual peaks was measured using ChemStation software (Agilent).

[2] = tested on: TP53 WT colon cancer cell line LoVo; experiment: CellTiter-Glo growth inhibition, LoVo; type: cell-based; settings: 72-hour exposure, FIG. 2
Method: as §1, §2

[3] = tested on: HL-60 (leukemia, TP null); settings: HL-60 nude mice
[4] = tested on: LoVo (colon cancer, TP WT); experiment: Xenograft model, nude mice implanted with LoVo; settings: NUC041 treatment, 8 days following the end of treatment
[5] = Pharmacokinetics after SC administration of NUC041 in phospholipid gel depot to mice; settings: analyte in plasma following SC administration of NUC041 (100 mg/kg) to mice
[6] = in vivo

Molecule: 4-amino-1-((2R,4R,5R)-3,3-difluoro-4- hydroxy-5- (hydroxymethyl)tetrahydrofuran-2- yl)pyrimidin-2(1I)-one hydrochloride [Gemcitabine, reference compound]
- GI50 [1]: > 50 µM
- ADP (HeLa cells): 15,639
- ATP (HeLa cells): 26,296
- CTP (HeLa cells): 1,297
- GTP (HeLa cells): 2,036
- UTP (HeLa cells): 4,801
- dATP, peak area, AU (HeLa cells): 0 AU
- dGDP, peak area, AU (HeLa cells): 7.95 AU
- dTDP, peak area, AU (HeLa cells): 43.4 AU
- dUTP, peak area, AU (HeLa cells): 5.3 AU
- GI50 [2]: > 50 µM

Molecule: Nc1ncn([C@H]2C[C@H](O)[C@@H](CO)O2)c(=O)n1 [Decitabine, 4-amino-1-((2R,4S,5R)-4-hydroxy-5-(hydroxymethyl)tetrahydrofuran-2-yl)-1,3,5-triazin-2(1I)-one]
- mice dead or moribund prior to the conclusion of the study ([3]; 5 mg/kg per day for three consecutive days a week for three weeks): Four of ten

Molecule: C[Si](C)(C)OC[C@H]1O[C@@H](n2cnc(N)nc2=O)C(F)(F)[C@@H]1O[Si](C)(C)C [NUC041, 4-amino-1-((2R,4R,5R)-3,3-difluoro-4-(trimethylsilyloxy)-5-((trimethylsilyloxy)methyl)tetrahydrofuran-2-yl)-1,3,5-triazin-2(1H)-one]
- tumor weights less than saline controls [4]: 26.6%
- AUClast (area under the plasma concentration versus time curve from 0 to last quantifiable sampling time) [5]: 20.0 ng·h/mL
- pharmacokinetic advantage over NUC013 [6]: did not demonstrate a pharmacokinetic advantage over NUC013
- hazard ratio (HR) vs saline control ([3]; 31 mg/kg intravenously, oil in water emulsion): 0.51
